{
  "source": "paper PMC8624133",
  "about": "“10th Trends in Medical Mycology Held on 8 to 11 October 2021, Aberdeen, Scotland, Organized by the European Confederation of Medical Mycology (ECMM)” (Journal of Fungi, 2021)",
  "molecules": {"B1": {"name": "G-CSF (protein, UniProt P09919 31-207, looked up)", "Granulocyte …": "TPLGPASSLPQSFLLKCLEQVRKIQGDGAALQEKLVSECATYKLCHPEELVLLGHSLGIPWAPLSSCPSQALQLAGCLSQLHSGLFLYQGLLQALEGISPELGPTLDTLQLDVADFATTIWQQMEELGMAPALQPTQGAMPAFASAFQRRAGGVLVASHLQSFLEVSYRVLRHLAQP"}},
  "key": {"[1]": {"system": "Candida albicans (CA)", "assay": "Post-antifungal effect (PAFE)", "type": "cell-based", "settings": "CA clinical isolate; all concentrations (1×, 4×, 16× bMIC), 1 h exposure", "method": "(§1) Materials &Methods: Six Candida spp. […] For PAFE determinations, antifungal concentrations of 1×, 4×, and 16× bMiC were used. A starting inoculum of 1–[…] CFU/mLwas added to RPMl with the antifungal agent. Post 1 h exposure, cells were washed 3 times and resuspended in 10 mL of pre-warmed RPMl. Colony counts were performed at to, 1 h before and after final washt t2, t4, t8, t12, t24 and t48 h. PAFE was calculated as the difference in time required for isolates to rrow1-logio following the final cell wash compared to the growth control."}, "[2]": {"assay": "Open-label single-dose study in hepatic impairment", "type": "in vivo, human", "method": "Materials &Methods: The safety, tolerability, and PK of rezafungin in subjects with moderate (Group 1a) and severe (Group 2a) HI (Child-Pugh class Band C) and healthysubjects (HS, Groups 1b and 2b) was investigated in this open-label, single-dose study. Each Hl group enrolled was matched to a separate HS group (n = 8 each 32 total) by age, sex and body mass index (BMI) and received a single 400-mg intravenous 1 h infusion of RZF.Plasma PK sampling was performed at various time points through 336 h post- dose. Rezafungin PKparameters were derived using non-compartmental analysis. Safety and tolerability were assessed throughout the study."}, "[3]": {"system": "C. parapsilosis (CPRP)", "assay": "Post-antifungal effect (PAFE)", "type": "cell-based, Candida parapsilosis", "settings": "CPRP ATCC 22019, all concentrations", "method": "as §1"}, "[4]": {"system": "C. glabrata (CGLA)", "assay": "Post-antifungal effect (PAFE)", "type": "cell-based, Candida glabrata", "method": "as §1"}, "[5]": {"system": "C. albicans", "assay": "Neutrophil control of hyphal growth (swarming)", "type": "cell-based, Candida albicans", "settings": "neutrophils of SOT and SCT recipients, ex vivo", "method": "Methods and Materials: Twenty-one SOT, 19 SCT and 23 healthy control patients (HC) were identified and consented at primary care/outpatient transplant clinics. Transplant recipients were enrolled at a time period two to four months post-transplant. Following consent and peripheral blood collection, neutrophils were freshly isolated and co-incubated with C. albicans and the percent remaining live yeast was measured using a viability dye compared to a standard control to determine fungal elimination by neutrophils. Growth inhibition of C. albicans was also quantified by neutrophil swarming to yeast spotted onto glass slides, assessed by live cell imaging with or without G-CSF. Effect of soluble factors on neutrophils function was determined by incubation of healthy neutrophils with SOT and SCT serum and measuring ability to control C. albicans."}},
  "note": "Starred links: 1 amine or outer side, 2 acyl side, 3 side chain; linkers in the order of their positions; H or OH if unused. Positions of bridges follow the written chain, without caps; N, C: chain ends. Non-standard residues stand in square brackets, D forms with d. Residues, ends and D or L forms follow the SMILES beside them. *: point of attachment. Orn(4R-OH,5R-OCH2CH2NMe3+) = C[N+](C)(C)CCO[C@@H](N[*:3])[C@H](O)C[C@H](N[*:1])C(=O)[*:2]; pTerphenylCO(4''-OnC5H11) = CCCCCOc1ccc(-c2ccc(-c3ccc(C(=O)*)cc3)cc2)cc1; hTyr(3S-OH,4S-OH) = N[C@H](C(=O)O)[C@H](O)[C@@H](O)c1ccc(O)cc1; Pro(3S-OH,4S-Me) = C[C@H]1CN[C@H](C(=O)O)[C@H]1O; Hyp = O=C(O)[C@@H]1C[C@@H](O)CN1",
  "data": [
    {"molecule": "CCCCCOc1ccc(-c2ccc(-c3ccc(C(=O)N[C@H]4C[C@@H](O)[C@@H](OCC[N+](C)(C)C)NC(=O)[C@@H]5[C@@H](O)[C@@H](C)CN5C(=O)[C@H]([C@@H](C)O)NC(=O)[C@H]([C@H](O)[C@@H](O)c5ccc(O)cc5)NC(=O)[C@@H]5C[C@@H](O)CN5C(=O)[C@H]([C@@H](C)O)NC4=O)cc3)cc2)cc1", "note": "[rezafungin, Rezafungin] ({pTerphenylCO(4''-OnC5H11)}-[Orn(4R-OH,5R-OCH2CH2NMe3+)]T[Hyp][hTyr(3S-OH,4S-OH)]T[Pro(3S-OH,4S-Me)]; lactam 1-C)", "values": [
      {"measurement": "PAFE", "setting": "[1]", "result": "> 14.9", "unit": "h"},
      {"measurement": "AEs, moderate hepatic impairment group", "setting": "[2]; all mild severity", "result": 5},
      {"measurement": "AEs, severe hepatic impairment group", "setting": "[2]; all moderate severity, unrelated", "result": 3},
      {"measurement": "AEs, all groups", "setting": "[2]; in 7 of 32 subjects", "result": 9},
      {"measurement": "mean exposure lower than in healthy subjects", "setting": "[2]; moderate or severe HI, single 400-mg intravenous 1 h infusion, AUC, Cmax", "result": "~ 30%"},
      {"measurement": "mean half-life", "setting": "[2]; range across groups, non-compartmental analysis", "result": "110 to 124", "unit": "h"},
      {"measurement": "PAFE", "setting": "[3]", "result": "> 40", "unit": "h"},
      {"measurement": "PAFE", "setting": "[4]; CGLA #3 isolate, 1× bMIC", "result": "> 46.7", "unit": "h"},
      {"measurement": "PAFE", "setting": "[4]; both CGLA strains, all concentrations", "result": "> 40", "unit": "h"}
    ]},
    {"molecule": "B1", "values": [
      {"measurement": "neutrophil ability to control hyphal growth", "setting": "[5]", "result": "partially restored"}
    ]}
  ]
}
